Data published in patent US9822136B2, “Chemical inhibitors of sebocyte function” (priority 2016, dated 2017).
Entries after “also recorded” stand apart in the source; their conditions may differ.

Key:
zygomatic/forehead skin = test: Cooling sensation after application to zygomatic/forehead skin; assay type: in vivo, human; settings: for Sensory Quality / Duration / Onset: 20 mg/mL in distilled water; for Duration: offset minus onset; for Onset: time to reach 2 units of coolness; for Duration of localized cooling and refreshing sensations: forehead skin, 20 mg/mL, 0.08 to 0.15 mL
Method: When certain Dapa compounds are applied to the zygomatic and forehead skin, sensations of coolness/cold are felt and can be graded in intensity [Wei. 1-Di-isopropyl-phosphinoyl-alkanes as topical agents for the treatment of sensory discomfort. US 2015/0164924]. For example, one can rate the sensation as 0, 1, 2, or 3 with: 0 as no change; 1 as slight coolness, or cold; 2 as clear-cut signal of coolness or cold; and 3 as strong cooling or cold. The intervals for recording are 5 to 15 minutes, until at least two successive zeroes are obtained. The onset of drug action is taken as the time to reach 2 units of coolness intensity. The active compounds here, e.g, 1-7 produce cooling with 1 min after application. The duration of Dapa-compound action is defined as the offset time minus the onset time. The offset of drug action is defined here as the time when coolness intensity drops below 2, after previously surpassing 2 units.
Test compounds were applied to the skin of the forehead and zygomatic using cotton gauze (0.4 g, rectangular, 50 mm×60 mm; from CS-being, Daisan Cotton, Japan). The test compounds were used at a concentration of 20 mg/mL in distilled water. From the data shown above, it can be seen that, among these compounds, 1-7 and 1-8 evoked cool/cold on zygomatic/forehead skin.

cloned hTRPM8 channel = target: T1, cloned hTRPM8 channel (Homo sapiens, UniProt Q7Z2W7); test: TRPM8 activation, FLIPR calcium assay in CHO cells; assay type: cell-based; settings: for Relative Potency to I-menthol: TRPM8 EC50 relative to I-menthol
T1 construct: host or cells: CHO cells
Method: The in vitro effects of test articles were first evaluated on cloned hTRPM8 channel. […] The test cells were Chinese Hamster Ovary (CHO) cells stably transfected with human TRPM8 cDNAs. […] Substances were evaluated at 8 concentrations (0.03 to 300 μM) with n=4 replicates per determination. For Fluorescence Imaging Plate Reader ([…]″) assay, cells were plated in 384-well black wall, flat clear-bottom microtiter plates (Type: BD Biocoat Poly-D-Lysine Multiwell Cell Culture Plate) at approximately 30,000 cells per well. Cells were incubated at 37° C. overnight to reach a near confluent monolayer appropriate for use in a fluorescence assay. The test procedure was to remove the growth media and to add 40 μL of HBPS containing Fluo-8 for 30 minutes at 37° C. 10 μL of test compound, vehicle, or control solutions in HBPS were then added to each well and read for 4 min using a Fluo-8 calcium kit and the […]″ instrument (Molecular Devices, Sunnyvale, California). […] J. Neurosci.
Concentration-response data were analysed via the FLIPR Control software that is supplied with the FLIPR System (MDS-AT) and fitted to a Hill equation of the following form: Response=Base+(Max−Base)/1+(xhalf/x)^rate, where: “Base” is the response at low concentrations of test compound; “Max” is the maximum response at high concentrations; “xhalf” is the EC50 (the concentration of test compound producing half-maximal activation); and “rate” is the Hill coefficient. Nonlinear least squares fits were made assuming a simple one-to-one binding model.

sebocytes [1] = test: 3H-thymidine incorporation into sebocytes; assay type: cell-based, human; settings: for activity at 10 µM: Homo sapiens, 3 h, uptake into sebocytes, NS = not significant
Method: (§1) The activities of 1-7 and 1-8 on an immortalized sebocyte cell line were examined in the laboratory of Prof Im Myung using methods previously described [Im et al. Epigallocatechin-3-gallate suppresses IGF-I-induced lipogenesis and cytokine expression in SZ95 sebocytes. J. Invest. Dermatol. 132, 2700-8 (2012)]. Proliferation of the sebocytes was measured using the MTT assay, by examination of micrographs of the cells in culture, and ^3H-thymidine incorporation. The effects of the test agents on lipogenesis were further studied by Oil Red O staining and analysis of the lipid composition of the cells. Studies were also conducted on signaling pathways for lipogenesis [PPAR and SREBP-1, Trivedi et al. Peroxisome proliferator-activated receptors increase human sebum production. J. Invest. Dermatol. 126, 2002-9 (2006)].
(§2) 1-7 and 1-8 are sensory cooling agents on the skin and activators [agonists] of the TRPM8 ion channel protein. […] The indicators used for direct comparison were sebocyte viability measured in the MTT assay and then the ^3H-thymidine incorporation assay.

sebocytes [2] = test: Sebocyte viability, MTT assay; assay type: cell-based, human; settings: for Activity relative to 1-8 in the MTT sebocyte assay: FIG. 4; for Sebocyte cell viability as % of controls (FIG. 4): at 0.10 μM; for Sebocyte cell viability as % of controls (FIG. 3): concentrations in mM, 1-8 at 1 mM
Method: as §1
The MTT assay is a colorimetric assay for cell viability. MTT [3-(4,5-dimethylthiazol-2-yl)-2-5-diphenyltetrazolium bromide], a yellow tetra-azole dye, is reduced to purple formazan in living cells by NADPH-dependent oxidoreductase enzymes. When the number of viable cells decreases the amount of enzymatic activity and purple color decreases and this can be measured with a spectrophotometer.
as §2

sebocytes [3] = test: IGF-1 stimulated lipogenesis in sebocytes (Oil Red O, thin-layer and gas chromatography of lipids); assay type: cell-based, human
Method: as §1, with “132, 2700-8 (2012)].” left out, “Dermatol.” for “Dermatol. 126, 2002-9 (2006)].”
J. Invest. Dermatol. […] Oil Red 0 [Sudan Red 5B] is a diazo dye used for staining neutral triglycerides and lipids on cells.

human sebocytes = test: Inhibition of sebocyte function in cultured human sebocytes (assay not specified); assay type: cell-based; settings: for Inhibition of sebocyte function: 0.1mM
Method: as §1, §2

[4] = system: forehead skin of human subjects; test: Sebum secretion of forehead skin (Sebumeter); assay type: in vivo; settings: 20 mg/mL on forehead, FIG. 2
Method: Sebum is an oily substance secreted by the sebaceous gland. These glands, attached to hair follicles, are abundant on the face and scalp. Increased secretion of sebum, for example during teenage years, and associated with androgen stimulation is associated with acne. […] Sebum secretion was measured here using a Sebumeter®, a standardized instrument based on a mat tape brought into contact with the skin, and then grease spot photometry [CK Electronic, Cologne, Germany].
In nine human subjects the baseline secretion of sebum was 188±19 μg/cm^2. […] This pharmacological effect has not been previously observed with Dapa-compounds such as 1-7. This was a new and unexpected observation.

TRPM8 and actin = test: Non-sebum cellular markers in sebocytes; assay type: cell-based, human
Text: (§3) There are intracellular biochemical receptors and markers of sebocyte activation and sebum production. Peroxisome proliferator-activated receptors [PPAR] agonists increase sebum production in isolated sebocytes [Trivedi et al. (2006)]. This class of receptors is reduced after 1-8. Similarly, the […] which is linked to lipogenesis in sebocytes, was reduced by 1-8. These effects were specific to the markers of sebum production, as cellular receptors such as TRPM8 and actin were not affected by 1-8.

[5] = system: sterol-response binding protein [SBEP-1]; test: Marker of sebum production in sebocytes: SREBP-1; assay type: cell-based, human
Method: as §1, §3

[6] = system: Peroxisome proliferator-activated receptors [PPAR]; test: Marker of sebum production in sebocytes: PPAR; assay type: cell-based, human
Method: as §1, §3

T1 sequence (Q7Z2W7 whole entry): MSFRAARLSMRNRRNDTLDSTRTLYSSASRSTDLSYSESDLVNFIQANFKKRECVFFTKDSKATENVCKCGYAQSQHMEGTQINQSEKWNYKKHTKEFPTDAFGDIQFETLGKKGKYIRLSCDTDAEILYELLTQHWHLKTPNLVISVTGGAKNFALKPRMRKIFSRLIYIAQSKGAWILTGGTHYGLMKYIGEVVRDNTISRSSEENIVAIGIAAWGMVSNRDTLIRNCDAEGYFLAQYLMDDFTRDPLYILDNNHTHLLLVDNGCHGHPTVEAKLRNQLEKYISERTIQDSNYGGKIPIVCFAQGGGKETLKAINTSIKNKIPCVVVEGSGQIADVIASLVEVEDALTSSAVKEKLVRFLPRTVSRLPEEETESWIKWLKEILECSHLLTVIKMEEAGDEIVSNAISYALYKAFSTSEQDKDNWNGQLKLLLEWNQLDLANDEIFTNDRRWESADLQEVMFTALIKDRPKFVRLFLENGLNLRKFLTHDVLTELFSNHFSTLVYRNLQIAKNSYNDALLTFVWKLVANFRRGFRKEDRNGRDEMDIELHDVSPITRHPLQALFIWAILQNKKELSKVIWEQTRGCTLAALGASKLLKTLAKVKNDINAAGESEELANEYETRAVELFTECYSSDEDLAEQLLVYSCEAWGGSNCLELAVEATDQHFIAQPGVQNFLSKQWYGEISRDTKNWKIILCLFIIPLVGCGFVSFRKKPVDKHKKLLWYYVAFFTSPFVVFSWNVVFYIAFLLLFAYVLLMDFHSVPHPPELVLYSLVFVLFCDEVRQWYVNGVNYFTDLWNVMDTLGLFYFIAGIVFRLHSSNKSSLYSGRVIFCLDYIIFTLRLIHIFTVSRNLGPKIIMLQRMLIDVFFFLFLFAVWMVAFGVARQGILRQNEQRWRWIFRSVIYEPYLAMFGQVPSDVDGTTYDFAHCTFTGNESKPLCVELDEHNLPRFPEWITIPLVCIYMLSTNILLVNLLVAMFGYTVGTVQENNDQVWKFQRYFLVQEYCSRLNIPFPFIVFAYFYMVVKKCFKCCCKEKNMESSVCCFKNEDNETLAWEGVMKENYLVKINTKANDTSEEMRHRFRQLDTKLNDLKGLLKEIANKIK

Row | SMILES | Sensory Quality (zygomatic/forehead skin) | Duration (zygomatic/forehead skin) | Onset (zygomatic/forehead skin) | Relative Potency to I-menthol (cloned hTRPM8 channel) | activity at 10 µM (sebocytes [1]) | other results
1 | CCCCCCP(=O)(C(C)C)C(C)C [Code 1-6, 1-diisopropylphosphorylhexane] | dynamic | 1.3 h | ~1 min | 1.6 |  | 
2 | CCCCCP(=O)(C(C)CC)C(C)CC (stereo not shown) [Code 2-5, 1-disec-butylphosphorylpentane] | cool | 1.1 h | ~1 min | 2.2 | ≥ 98% | 
3 | CCCCCCCCCCP(=O)(C(C)C)C(C)C [Code 1-10, 1-diisopropylphosphoryldecane] |  |  |  |  | ≥ 100% | Activity on TRPM8 (cloned hTRPM8 channel): low potency; Activity relative to 1-8 in the MTT sebocyte assay (sebocytes [2]): 10,000 x; Sebocyte cell viability as % of controls (FIG. 4) (sebocytes [2]): strongly inhibited; Levels / production of squalene (thin layer chromatography, FIG. 5) (sebocytes [3]; IGF-1 stimulated sebocytes): lowers
4 | CCCCCCCP(=O)(C(C)C)C(C)C [Code 1-7, 1-diisopropylphosphorylheptane] | dynamic-icy | 3.2 h | ~1 min | 5.4 | ≥ 100% | Inhibition of sebocyte function (human sebocytes): not seen; Sebum secretion after topical application [4]: significantly decreased; Onset of cooling after application (zygomatic/forehead skin): ≤ 1 min; Duration of localized cooling and refreshing sensations (zygomatic/forehead skin): several hours; Sebocyte cell viability as % of controls (FIG. 3) (sebocytes [2]): did not inhibit
5 | CCCCCCCCCCCCP(=O)(C(C)C)C(C)C [Code 1-12, 1-diisopropylphosphoryldodecane] |  |  |  |  | ~40% | Inhibition of 3H-thymidine incorporation into sebocytes (sebocytes [1]): clearly inhibited; Concentration at which fully effective (human sebocytes; sebocytes in culture): 0.01 µM; Activity on TRPM8 (cloned hTRPM8 channel): low potency; also recorded: very low activity; Activity relative to 1-8 in the MTT sebocyte assay (sebocytes [2]): 10,000 x; Sebocyte cell viability as % of controls (FIG. 4) (sebocytes [2]): strongly inhibited; Levels / production of squalene (thin layer chromatography, FIG. 5) (sebocytes [3]; IGF-1 stimulated sebocytes): effective; also recorded: lowers
6 | CCCCCCCP(=O)(C(C)CC)C(C)CC (stereo not shown) [Code 2-7, 1-disec-butylphosphorylheptane] | cold | 2.4 h | ~2 min | 3.4 | ≥ 85% | Activity on sebocyte viability (structure-activity summary of Table 6) (sebocytes [2]): absence of activities
7 | CCCCCP(=O)(C(C)C)C(C)C [Code 1-5, 1-diisopropylphosphorylpentane] | dynamic | 0.5 h | ~1 min | 0.7 |  | 
8 | CCCCCCP(=O)(C(C)CC)C(C)CC (stereo not shown) [Code 2-6, 1-disec-butylphosphorylhexane] | cold | 1.5 h | ~2 min | 4.7 | ≥ 100% | Activity on sebocyte viability (structure-activity summary of Table 6) (sebocytes [2]): absence of activities
9 | CC1=C(/C=C/C(C)=C/C=C/C(C)=C\C(=O)O)C(C)(C)CCC1 [cis-retinoic acid, reference compound] |  |  |  |  |  | IGF-1 increased lipids, gel staining (FIG. 5) (sebocytes [3]; IGF-1 stimulated sebocytes): inhibited
10 | CCCCCCCCP(=O)(C(C)C)C(C)C [Code 1-8, 1-diisopropylphosphoryloctane] | cold-icy | 4.0 h | ~1 min | 5.4 | ≥ 78% | TRPM8 and actin levels (TRPM8 and actin): not affected; SBEP-1 level [5]: reduced; Inhibition of sebocyte function (human sebocytes): potent inhibitor; PPAR level [6]: reduced; Duration of localized cooling and refreshing sensations (zygomatic/forehead skin): several hours; Photomicrographs of sebocyte cultures (sebocytes [2]; 0.1mM): patchy empty spaces; Sebocyte cell viability as % of controls (FIG. 3) (sebocytes [2]): strongly inhibited; IGF-1 induced increase of lipids in cells (Oil Red O photomicrograph) (sebocytes [3]; IGF-1 50 ng/mL, 0.1mM): inhibited; Squalene and wax esters (thin-layer chromatography and gas-chromatography) (sebocytes [3]; IGF-1 stimulated sebocytes): selectively decreased
11 | CCCCCCCCP(=O)(C(C)CC)C(C)CC (stereo not shown) [Code 2-8, 1-disec-butylphosphoryloctane] | cold | 5.6 h | 5 min | 2.9 | ≥ 90% | Activity on sebocyte viability (structure-activity summary of Table 6) (sebocytes [2]): more activity than 2-6 or 2-7
12 | CC1=C(/C=C/C(C)=C/C=C/C(C)=C/C(=O)O)C(C)(C)CCC1 [trans-retinoic acid, reference compound] |  |  |  |  |  | IGF-1 increased lipids, gel staining (FIG. 5) (sebocytes [3]; IGF-1 stimulated sebocytes): inhibited
13 | CCCCCCCCCP(=O)(C(C)C)C(C)C [Code 1-9, 1-diisopropylphosphorylnonane] | cool | 2.0 h | ~2 min | 4.0 | ≥ 85% | Activity on sebocyte viability (structure-activity summary of Table 6) (sebocytes [2]): active
14 | CCCCP(=O)(C(C)CC)C(C)CC (stereo not shown) [Code 2-4, 1-disec-butylphosphorylbutane] | cool | 0.3 h | ~1 min | 0.3 |  | 
